{"source": "ChEMBL document CHEMBL1201862", "about": "“PubChem BioAssay data set” (2004)", "key": {"[1]": {"assay": "blockers of HIV-1 ZM109 envelope-driven cell-cell fusion – HeLa effector, CEM target cells, luciferase, cherry-pick, dose response (AID 652058);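 also: luciferase signal from HIV-1 Env mediated cell-cell fusion of effector and target cells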", "type": "functional, cell-based"}, "[2]": {"assay": "viability loss in CEM21 cells – cell-based, CellTiter-Glo luminescence, cherry-picked, cytotoxicity control for viral fusion inhibitor project, dose response (AID 652042);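 also: potency for signal decrease meaning cytotoxicity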", "type": "functional"}, "Beta-galactosidase": {"molecular_target": "Beta-galactosidase (Escherichia coli, UniProt Q8VNN2)", "assay": "Dose response counterscreen for EBI2 assay utilizing the enzyme, b-galactosidase.", "type": "functional"}, "[3]": {"molecular_target": "Peroxisome proliferator-activated receptor gamma/Nuclear receptor coactivator 3 (Homo sapiens, UniProt P37231)", "assay": "TR-FRET dose response biochemical High Throughput Screening assay for agonists of the steroid receptor coactivator 3 (SRC-3) recruitment by the peroxisome proliferator-activated receptor gamma (PPAR gamma): non-selective agonists. [Related pubchem assays: 1301 (Confirmation screen.), 1048 (Primary screen.)]", "type": "functional"}, "Major prion protein": {"molecular_target": "Major prion protein (Homo sapiens, UniProt P04156)", "type": "functional, cell-based"}, "cells [4]": {"assay": "cells"}, "[5]": {"molecular_target": "Peroxisome proliferator-activated receptor gamma/Nuclear receptor coactivator 2 (Homo sapiens, UniProt P37231)", "assay": "(§1) TR-FRET dose response biochemical High Throughput Screening assay for agonists of the steroid receptor coactivator 2 (SRC-2) recruitment by the peroxisome proliferator-activated receptor gamma (PPAR gamma): non-selective agonists. [Related pubchem assays: 1297, 1032 ]", "type": "functional"}, "[6]": {"molecular_target": "Peroxisome proliferator-activated receptor gamma/Nuclear receptor coactivator 1 (Homo sapiens, UniProt P37231)", "assay": "as §1, with “1 (SRC-1)” for “2 (SRC-2)”, “assays (depositor defined):AID1300, AID1808, AID504735, AID631]” for “assays: 1297, 1032 ]”", "type": "protein assay"}, "Kallikrein-7": {"molecular_target": "Kallikrein-7 (Homo sapiens, UniProt P49862)", "assay": "Fluorescence Intensity-based biochemical primary high throughput dose response assay to identify activators of kallikrein-7 (K7) zymogen."}, "[7]": {"assay": "Luminescence-based cell-based high throughput dose response assay to identify activators of the DAF-12 from the parasite S. stercoralis (ssDAF-12).", "type": "functional"}, "[8]": {"molecular_target": "T1, Trace amine-associated receptor 1 (Homo sapiens, UniProt Q96RJ0)", "T1 sequence (Q96RJ0 whole entry)": "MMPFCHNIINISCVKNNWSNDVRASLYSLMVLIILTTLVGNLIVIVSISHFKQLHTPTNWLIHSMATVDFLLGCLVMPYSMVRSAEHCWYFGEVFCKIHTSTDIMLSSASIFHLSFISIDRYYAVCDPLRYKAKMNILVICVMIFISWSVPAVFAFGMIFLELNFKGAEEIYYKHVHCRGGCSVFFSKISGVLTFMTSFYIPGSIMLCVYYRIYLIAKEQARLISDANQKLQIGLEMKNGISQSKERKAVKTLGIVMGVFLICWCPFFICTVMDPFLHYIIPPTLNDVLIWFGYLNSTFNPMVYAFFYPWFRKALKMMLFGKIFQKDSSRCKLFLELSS", "assay": "Fluorescence-based cell-based high throughput dose response assay to identify agonists of the human trace amine associated receptor 1 (TAAR1).", "type": "functional"}, "[9]": {"molecular_target": "T1, Trace amine-associated receptor 1", "assay": "Counterscreen for agonists of the human trace amine associated receptor 1 (hTAAR1): Fluorescence-based cell-based high throughput dose response assay to identify hTAAR1 agonist that also desensitize TAAR1 receptor response.", "type": "functional"}, "cells [10]": {"assay": "cells", "type": "functional, cell-based"}, "cells [11]": {"assay": "cells", "type": "functional, cell-based", "remark": "listed apart in the source"}, "HeLa": {"system": "HeLa", "assay": "viability loss in HeLa cells – cell-based, ATP luminescence, cherry-pick samples, cytotoxicity control, dose response (AID 687004)", "type": "functional", "conditions": "Homo sapiens"}, "Mu-type opioid receptor": {"molecular_target": "Mu-type opioid receptor (Homo sapiens, UniProt P35372)", "type": "functional, cell-based"}, "[12]": {"molecular_target": "5-hydroxytryptamine receptor 2A (Mus musculus, UniProt P35363)", "type": "functional, cell-based"}, "[13]": {"molecular_target": "Matrix metalloproteinase-14 (Homo sapiens, UniProt P50281)", "assay": "Dose Response confirmation of uHTS hits for a small molecule inhibitors of MT1-MMP activation in a fluorescence assay set 1.", "type": "functional"}}, "note": "Active and inactive are the calls of the source."}
{"smiles": "CC1(C)N=C(N)N=C(N)N1CCCCc1ccccc1", "values": [{"measurement": "AC50", "setting": "[1]", "result": "1.34 µM (active)"}, {"measurement": "AC50", "setting": "[2]", "result": "1.63 µM (active)"}]}
{"smiles": "CCOC(=O)N1CCN(C(=O)COc2ccc(Br)cc2)CC1", "values": [{"measurement": "IC50", "setting": "Beta-galactosidase", "result": "> 80 µM (inactive)"}]}
{"smiles": "Cc1ccc(Sc2c(O)c3ccccc3n(C)c2=O)cc1", "values": [{"measurement": "EC50", "setting": "[3]", "result": "> 79.4 µM (not active)"}, {"measurement": "IC50", "setting": "Major prion protein", "result": "7.12 µM (active)"}, {"measurement": "IC50", "setting": "cells [4]", "result": "> 138 µM (inactive)"}, {"measurement": "EC50", "setting": "[5]", "result": "> 79.4 µM (not active)"}, {"measurement": "EC50", "setting": "[6]", "result": "> 79.4 µM (inactive)"}]}
{"smiles": "N#Cc1ccc2c(c1)nc1ccccn12", "values": [{"measurement": "EC50", "setting": "Kallikrein-7", "result": "> 69.6 µM (inactive)"}]}
{"smiles": "COc1ccc(/C=C(/CC(=O)NCc2ccc(Cl)cc2)c2nc3ccccc3s2)cc1", "values": [{"measurement": "EC50", "setting": "Kallikrein-7", "result": "2.56 µM (active)"}]}
{"smiles": "COc1ccc(-c2cn3ccccc3n2)cc1OC", "values": [{"measurement": "IC50", "setting": "[7]", "result": "> 67.5 µM (inactive)"}]}
{"smiles": "Cc1ccc(/C=C/C(=O)N2CCCN(C(=O)/C=C/c3ccc(C)cc3)CC2)cc1", "values": [{"measurement": "IC50", "setting": "Beta-galactosidase", "result": "> 80 µM (inactive)"}]}
{"smiles": "Cc1cc(C)c(C#N)c(SCC(=O)c2cc(C)n(CCc3ccccc3)c2C)n1", "values": [{"measurement": "EC50", "setting": "[8]", "result": "1.15 µM (active)"}, {"measurement": "IC50", "setting": "[9]", "result": "4.68 µM (active)"}, {"measurement": "IC50", "setting": "cells [10]", "result": "> 29.9 µM (inactive)"}, {"measurement": "EC50", "setting": "cells [11]", "result": "> 29.9 µM (inactive)"}]}
{"smiles": "COc1ccc(N(CC(=O)NCCSCc2ccc(C)cc2)S(=O)(=O)c2ccccc2)cc1", "values": [{"measurement": "AC50", "setting": "HeLa", "result": "> 52 µM (inactive)"}]}
{"smiles": "CC1CC(C)CN(CCOc2cccc(Cl)c2Cl)C1", "note": "(stereo not given)", "values": [{"measurement": "EC50", "setting": "Mu-type opioid receptor", "result": "92.5 µM (inactive)"}, {"measurement": "EC50", "setting": "[12]", "result": "0.281 µM (active)"}]}
{"smiles": "CN1C2=CC=CC=CC2=[N+](C)C12C=CC(=[N+]([O-])[O-])C=C2[N+](=O)[O-]", "note": "(stereo not given)", "values": [{"measurement": "IC50", "setting": "[13]", "result": "54.2 µM (inactive)"}]}
